Assay results as given in ChEMBL document CHEMBL1201862, “PubChem BioAssay data set” (2004).
Calls of active or inactive are those of the source. Unless noted, the calls are words filed in the database; no cut-off is given here.

Experiments:
[1] = target: T1, Dual specificity protein phosphatase 3 (Homo sapiens, UniProt P51452); assay: VHR1 phosphatase inhibitors, primary screen, biochemical, absorbance, uHTS (AID 1654)
[2] = target: Dual specificity protein phosphatase 6 (Rattus norvegicus, UniProt Q64346); assay: MKP-3 phosphatase inhibitors, primary screen, biochemical, rat enzyme, in vitro (AID 425)
[3] = target: T1, Dual specificity protein phosphatase 3; assay: VHR1 phosphatase inhibitors, biochemical (AID 1878)
Cytochrome P450 2C9 = Cytochrome P450 2C9 (Homo sapiens, UniProt P11712)
[4] = target: T2, Delta-type opioid receptor (Homo sapiens, UniProt P41143); assay: SAR Analysis of Agonists of the DOR Receptor using an Image-Based Assay - Set 2. [Related pubchem assays (depositor defined):AID1777, AID1785, AID1786, AID1966, AID2133, AID2136, AID2284, AID2285, AID2370]; format: functional
[5] = target: T3, Kappa-type opioid receptor (Homo sapiens, UniProt P41145); assay: SAR analysis of Agonists of the Kappa Opioid Receptor (KOR) using an Image-Based Assay - Set 2. [Related pubchem assays (depositor defined):AID1777, AID1786, AID1966, AID2133, AID2136, AID2284, AID2285, AID2359]; format: functional
[6] = target: T3, Kappa-type opioid receptor; assay: SAR analysis of Antagonists of the Kappa Opioid Receptor (KOR) using an Image-Based Assay - Set 2. [Related pubchem assays (depositor defined):AID1777, AID1785, AID1786, AID1966, AID2133, AID2136, AID2284, AID2285, AID2348]; format: functional
Mu-type opioid receptor [7] = target: T4, Mu-type opioid receptor (Homo sapiens, UniProt P35372); assay: SAR Analysis of Antagonists of the MOR Receptor using an Image-Based Assay - Set 2. [Related pubchem assays (depositor defined):AID1777, AID1785, AID1786, AID1966, AID2133, AID2136, AID2284, AID2285, AID2420]; format: functional
[8] = target: T2, Delta-type opioid receptor; assay: SAR Analysis of Antagonists of the DOR Receptor using an Image-Based Assay - Set 2. [Related pubchem assays (depositor defined):AID1777, AID1785, AID1786, AID1966, AID2133, AID2136, AID2284, AID2285, AID2357]; format: functional
[9] = target: T3, Kappa-type opioid receptor; assay: SAR analysis of small molecule agonists of the kappa opioid receptor via a luminescent beta-arrestin assay - Set 2. [Related pubchem assays (depositor defined):AID1777, AID1785, AID1786, AID1966, AID2133, AID2136, AID2284, AID449737]; format: functional
Mu-type opioid receptor [10] = target: T4, Mu-type opioid receptor; assay: SAR Analysis of Agonists of the MOR Receptor using an Image-Based Assay - Set 2. [Related pubchem assays (depositor defined):AID1777, AID1785, AID1786, AID1966, AID2133, AID2136, AID2284, AID2285, AID2352]; format: functional
[11] = target: Voltage-dependent T-type calcium channel subunit alpha-1H (Homo sapiens, UniProt O95180); assay: Cav3.2 T-type channel blockers, cell-based, SynthLib3 library, HEK293 Cav3.2, fluorescence (AID 493041); format: functional
Chain of Voltage-dependent T-type calcium channel subunit alpha-1H (O95180 whole entry): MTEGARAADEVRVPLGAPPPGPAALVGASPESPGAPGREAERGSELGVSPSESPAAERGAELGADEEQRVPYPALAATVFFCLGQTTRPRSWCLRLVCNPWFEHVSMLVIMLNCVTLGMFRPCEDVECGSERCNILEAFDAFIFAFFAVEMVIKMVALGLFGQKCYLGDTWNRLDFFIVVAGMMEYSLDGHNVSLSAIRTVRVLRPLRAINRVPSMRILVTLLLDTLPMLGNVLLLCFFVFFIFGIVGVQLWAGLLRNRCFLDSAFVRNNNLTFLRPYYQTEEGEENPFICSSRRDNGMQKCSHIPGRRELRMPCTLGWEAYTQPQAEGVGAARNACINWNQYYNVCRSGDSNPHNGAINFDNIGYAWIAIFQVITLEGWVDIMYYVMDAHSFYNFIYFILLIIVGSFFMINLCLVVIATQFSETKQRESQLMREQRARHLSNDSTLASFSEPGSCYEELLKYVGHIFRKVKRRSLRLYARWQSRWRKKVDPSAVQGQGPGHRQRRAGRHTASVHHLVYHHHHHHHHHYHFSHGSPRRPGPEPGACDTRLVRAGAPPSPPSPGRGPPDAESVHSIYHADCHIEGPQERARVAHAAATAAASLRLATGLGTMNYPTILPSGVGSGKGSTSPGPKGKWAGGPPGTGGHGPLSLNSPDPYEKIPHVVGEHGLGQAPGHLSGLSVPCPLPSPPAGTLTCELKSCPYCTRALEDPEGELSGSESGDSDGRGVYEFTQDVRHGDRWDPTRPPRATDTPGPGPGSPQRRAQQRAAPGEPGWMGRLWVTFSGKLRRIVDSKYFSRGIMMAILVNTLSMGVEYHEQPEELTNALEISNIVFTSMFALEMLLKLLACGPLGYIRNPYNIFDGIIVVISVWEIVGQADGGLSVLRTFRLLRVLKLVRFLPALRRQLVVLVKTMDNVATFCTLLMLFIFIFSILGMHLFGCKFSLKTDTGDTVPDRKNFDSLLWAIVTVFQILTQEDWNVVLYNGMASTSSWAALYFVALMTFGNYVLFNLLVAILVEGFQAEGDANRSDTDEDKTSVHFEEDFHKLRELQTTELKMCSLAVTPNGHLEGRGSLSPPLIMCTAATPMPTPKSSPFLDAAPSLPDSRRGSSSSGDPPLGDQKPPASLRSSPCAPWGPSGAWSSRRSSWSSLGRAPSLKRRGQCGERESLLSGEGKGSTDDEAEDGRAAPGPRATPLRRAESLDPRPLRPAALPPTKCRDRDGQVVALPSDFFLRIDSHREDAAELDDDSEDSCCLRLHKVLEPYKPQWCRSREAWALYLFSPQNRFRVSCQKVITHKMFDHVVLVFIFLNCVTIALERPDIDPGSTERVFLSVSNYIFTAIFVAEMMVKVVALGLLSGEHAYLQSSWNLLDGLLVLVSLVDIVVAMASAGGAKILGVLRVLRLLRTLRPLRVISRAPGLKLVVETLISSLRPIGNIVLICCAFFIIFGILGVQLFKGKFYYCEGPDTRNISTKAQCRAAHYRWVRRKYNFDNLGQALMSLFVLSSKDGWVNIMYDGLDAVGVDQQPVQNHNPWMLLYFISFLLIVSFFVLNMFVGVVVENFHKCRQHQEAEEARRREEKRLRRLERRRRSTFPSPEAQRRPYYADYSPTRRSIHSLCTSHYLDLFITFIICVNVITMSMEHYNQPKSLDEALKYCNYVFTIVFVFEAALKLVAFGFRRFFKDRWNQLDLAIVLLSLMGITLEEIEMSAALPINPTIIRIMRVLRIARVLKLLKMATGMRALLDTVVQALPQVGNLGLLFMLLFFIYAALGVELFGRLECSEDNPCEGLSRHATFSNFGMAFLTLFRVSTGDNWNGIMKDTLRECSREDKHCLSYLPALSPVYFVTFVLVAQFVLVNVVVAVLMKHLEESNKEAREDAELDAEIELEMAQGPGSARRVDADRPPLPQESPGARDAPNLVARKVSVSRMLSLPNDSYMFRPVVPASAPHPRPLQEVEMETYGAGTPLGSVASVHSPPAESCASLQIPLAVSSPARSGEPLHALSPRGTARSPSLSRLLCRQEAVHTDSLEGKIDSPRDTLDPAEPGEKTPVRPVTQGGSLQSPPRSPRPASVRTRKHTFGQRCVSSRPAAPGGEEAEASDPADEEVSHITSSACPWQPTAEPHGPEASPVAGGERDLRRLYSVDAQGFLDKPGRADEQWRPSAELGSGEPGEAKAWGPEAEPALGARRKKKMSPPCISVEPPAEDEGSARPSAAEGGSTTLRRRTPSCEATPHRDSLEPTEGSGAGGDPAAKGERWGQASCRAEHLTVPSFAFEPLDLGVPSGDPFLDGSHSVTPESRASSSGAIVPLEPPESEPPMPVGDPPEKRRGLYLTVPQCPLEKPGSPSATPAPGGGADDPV

T3 sequence (P41145 whole entry): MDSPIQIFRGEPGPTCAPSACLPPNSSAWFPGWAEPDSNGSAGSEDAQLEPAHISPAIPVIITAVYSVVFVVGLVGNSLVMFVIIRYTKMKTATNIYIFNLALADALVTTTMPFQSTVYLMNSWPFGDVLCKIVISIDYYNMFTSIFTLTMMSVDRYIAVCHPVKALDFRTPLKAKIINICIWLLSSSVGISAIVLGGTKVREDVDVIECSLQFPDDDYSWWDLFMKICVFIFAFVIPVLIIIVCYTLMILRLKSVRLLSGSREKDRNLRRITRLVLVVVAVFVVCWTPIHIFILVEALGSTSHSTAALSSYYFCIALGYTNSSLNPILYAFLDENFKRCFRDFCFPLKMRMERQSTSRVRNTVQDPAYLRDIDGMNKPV
T4 sequence (P35372 whole entry): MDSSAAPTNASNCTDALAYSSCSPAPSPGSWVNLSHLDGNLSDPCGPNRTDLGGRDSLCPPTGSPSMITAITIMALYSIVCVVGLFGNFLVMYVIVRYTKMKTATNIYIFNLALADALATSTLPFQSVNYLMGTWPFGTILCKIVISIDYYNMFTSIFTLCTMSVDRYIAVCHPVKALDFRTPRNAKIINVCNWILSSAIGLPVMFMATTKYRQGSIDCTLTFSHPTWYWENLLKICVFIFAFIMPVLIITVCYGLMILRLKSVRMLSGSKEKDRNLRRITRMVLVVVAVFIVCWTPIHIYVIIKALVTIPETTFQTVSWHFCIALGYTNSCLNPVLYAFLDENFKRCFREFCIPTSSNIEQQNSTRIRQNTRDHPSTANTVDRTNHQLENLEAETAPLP
T2 sequence (P41143 whole entry): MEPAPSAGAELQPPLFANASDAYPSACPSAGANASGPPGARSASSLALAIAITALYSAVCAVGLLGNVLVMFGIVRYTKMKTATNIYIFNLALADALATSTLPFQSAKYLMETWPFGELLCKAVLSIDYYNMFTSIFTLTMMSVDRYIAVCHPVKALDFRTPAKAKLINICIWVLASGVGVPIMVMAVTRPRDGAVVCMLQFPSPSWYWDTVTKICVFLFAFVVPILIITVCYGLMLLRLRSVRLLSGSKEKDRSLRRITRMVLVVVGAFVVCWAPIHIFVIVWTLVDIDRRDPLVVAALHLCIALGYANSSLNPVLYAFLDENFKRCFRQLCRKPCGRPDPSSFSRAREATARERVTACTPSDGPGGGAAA
T1 sequence (P51452 whole entry): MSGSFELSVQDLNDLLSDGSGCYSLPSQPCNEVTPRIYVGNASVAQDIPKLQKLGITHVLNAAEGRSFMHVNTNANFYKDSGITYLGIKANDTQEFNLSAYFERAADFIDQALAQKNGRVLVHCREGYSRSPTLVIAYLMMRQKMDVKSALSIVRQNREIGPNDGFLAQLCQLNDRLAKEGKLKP
Chain of Dual specificity protein phosphatase 6 (Q64346 whole entry): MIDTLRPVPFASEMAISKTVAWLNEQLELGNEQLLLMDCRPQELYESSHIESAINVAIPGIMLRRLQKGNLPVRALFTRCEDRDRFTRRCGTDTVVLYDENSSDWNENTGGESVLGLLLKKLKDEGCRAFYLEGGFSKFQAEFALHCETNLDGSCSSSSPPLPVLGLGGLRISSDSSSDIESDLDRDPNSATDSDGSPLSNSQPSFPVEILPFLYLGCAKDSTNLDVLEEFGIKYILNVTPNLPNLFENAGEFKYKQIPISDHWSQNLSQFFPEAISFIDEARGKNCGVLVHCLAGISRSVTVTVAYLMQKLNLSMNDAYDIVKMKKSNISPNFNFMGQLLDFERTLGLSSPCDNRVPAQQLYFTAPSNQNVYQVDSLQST
Chain of Cytochrome P450 2C9 (P11712 whole entry): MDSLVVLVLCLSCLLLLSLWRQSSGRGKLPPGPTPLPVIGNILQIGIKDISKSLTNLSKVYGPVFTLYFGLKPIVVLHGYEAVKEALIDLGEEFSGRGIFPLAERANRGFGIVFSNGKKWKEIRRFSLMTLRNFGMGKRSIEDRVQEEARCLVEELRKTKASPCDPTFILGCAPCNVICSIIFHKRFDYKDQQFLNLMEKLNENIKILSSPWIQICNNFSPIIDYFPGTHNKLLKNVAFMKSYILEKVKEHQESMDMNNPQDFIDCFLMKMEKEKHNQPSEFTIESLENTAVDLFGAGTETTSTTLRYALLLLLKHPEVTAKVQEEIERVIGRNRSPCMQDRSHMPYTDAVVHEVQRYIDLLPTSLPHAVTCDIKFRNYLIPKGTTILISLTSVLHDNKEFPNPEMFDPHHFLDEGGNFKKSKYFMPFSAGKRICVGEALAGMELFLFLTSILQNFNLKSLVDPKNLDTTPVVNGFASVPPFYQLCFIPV

CCC(=S)/C=C1\Sc2ccccc2N1CCCS(=O)(=O)O
IC50 [1]: 4.33 µM (active)
IC50 [2]: > 158 µM (not active)
IC50 [3]: 8.29 µM (active)
AC50 (Cytochrome P450 2C9): 22.4 µM (inconclusive)

c1ccc(CSc2nnc(-c3ccccn3)n2Cc2cccs2)cc1
EC50 [4]: > 32 µM (inactive)
EC50 [5]: 23.5 µM (inactive)
IC50 [6]: > 32 µM (inactive)
IC50 (Mu-type opioid receptor [7]): > 32 µM (inactive)
IC50 [8]: > 32 µM (inactive)
EC50 [9]: 13.9 µM (inactive)
EC50 (Mu-type opioid receptor [10]): > 32 µM (inactive)

CC(C)(C)CCN1C[C@@H]2C(CNC(=O)c3cc(Cl)cc(Cl)c3)[C@@H]2C1 (some centres not stated)
EC50 [11]: 0.17 µM (active)
